Source: patent US20240307575A1, “METHODS FOR […] MATTER” (priority 2021, published 2024)
Where “and” joins values, the source holds several entries; their conditions need not be identical. Equal entries are not always repeated. Where two headings read alike, the source gives them in different places.

What was measured:
[1] = tested on: Yeast & Molds; test: Example 4: yeast and molds count after NaDCC and/or H2O2 pulses; type: cell-based; conditions: control 152,000
Experimental: (§1) Aqueous solutions of NaDCC at variating concentrations from 1% [w/w] up to 5% [w/w] were prepared. […] Table 5 describes various sterilants and their effects:
(§2) Each pulse with disinfectant consisted of vacuum to 1 mbar, then introduction of a sterilant to 100 mbar, 6 minutes of keeping the sterilant at that pressure, introduction of air to 500 mbar, then vacuum.

[2] = tested on: Total pathogen; test: Example 4: total pathogen count after NaDCC and/or H2O2 pulses; type: cell-based; conditions: for Total pathogen Count: control 490,000; for Fold-Reduction: versus control
Experimental: as §1, §2

[3] = tested on: yeasts & molds; test: Example 2, Table 3: yeast and mold count after hydrogen peroxide pulses with air or ozone, with or without ozone preheat; type: cell-based; conditions: HPO to 75 mbar + air to 500 mbar 40° C. one pulse, control 1,950
Experimental: (§3) In table 3, the samples were all preheated to, 40° C. Some of the samples, indicated “O3 preheat” were preheated in the presence of ozone at atmospheric pressure. […] Air was subsequently introduced to a pressure of 500 mbar. Then the chamber was evacuated.

[4] = tested on: total count; conditions: for Total Count: HPO to 60 mbar 6 minutes, air 500 mbar 6 minutes, 40°, control 1,350,000; for Total Count Fold-Reduction: versus control
Experimental: (§4) For two of the samples, no preheating was performed, and for two of the samples, preheating was performed. Preheating involved warming the plant matter in the chamber at 40° C. for 5 minutes. Either one or two pulses of sterilant were performed. All pulses were performed at 40°. Before each pulse, the pressure in the chamber was reduced to 1 mbar.
(§5) Then, air was added and pressure was maintained at 500 mbar for 6 minutes.

[5] = tested on: Yeast & Mold; conditions: for Yeast & Mold: HPO to 60 mbar 6 minutes, air 500 mbar 6 minutes, 40°, control 1,150,000; for Yeast & Mold Fold-Reduction: versus control
Experimental: as §4, §5

[6] = tested on: Microbe mix (all 4); conditions: 15% [w/w] hydrogen peroxide vapor, mean of batches 1-3
Experimental: (§6) In this example, cannabis inflorescence (200 mg) was thoroughly sterilized, then inoculated by soaking in 30 ml of microbial suspension, using each of the microbes in the amounts described in table 7 below, including a microbe mix, consisting of a mixture of all 4 microbes in the table.
(§7) After soaking each sample of inflorescence in the respective microbial suspension, each sample was air dried in a laminar flow dryer overnight for 18 hours and refrigerated until sterilization was initiated. Inflorescence was sterilized 24, 48 and 72 hours post inoculation, designated batch 1, batch 2 and batch 3, respectively. Microbial load analysis was performed after each sterilization day. Samples were also inoculated, and not sterilized, to serve as controls. A saline solution was applied to some of the samples instead of a microbial suspension, to serve as a control.
(§8) Analysis of microbial count was performed to samples before and after sterilization, and each microbe count was determined using sub-samples of […] each from each sample, and was performed in triplicate. The sub-samples were ground in 20 ml of saline solution, seeded in a petri dish with agar, which were then incubated at 37° C. for 48 hours, for counting of colonies, to determine number of colony forming units (CFU) per cannabis sample. Logarithmic reduction of pathogen as compared to non-sterilized sample was determined.
(§9) Samples of cannabis inflorescence (200 mg) were introduced into a vacuum chamber in either a top tray or a middle tray. The top tray was located in the uppermost location in the chamber, where the highest temperature is measured. The temperature was set to be maintained at 50° C., however, due to the fact that heat rises within the chamber, and that sterilant solution was introduced to the chamber as a vapor having a temperature of about 140-150° C., in some of the experiments the temperature in the uppermost chamber reached 54° C.±1° C. and in some 58° C.±2° C. Two or three pulses of disinfection were performed for each sample, and the results are described in Table 8. In each pulse, pressure was reduced to 3±2 mbar. […] Then, air was added and pressure was maintained at 500 mbar for 6 minutes at that pressure. The air was then removed from the chamber and the pressure reduced to 3±2 mbar. This process constitutes one pulse. One or two additional pulses were performed for samples, for a total of two pulses per sample, or three pulses per sample. In the final pulse, after initiating a vacuum, air was then introduced and the chamber was […] to a pressure of 1 atmosphere.
(§10) For each pathogen, mean log reduction was calculated by log10 transformation of CFU values, analyzing each microbial treatment process separately. Sterilization processes were compared with a 1-way ANOVA on log transformed data.

[7] = tested on: E. Coli; conditions: 15% [w/w] hydrogen peroxide vapor, mean of batches 1-3
Experimental: as §6, §7, §8, §9, §10

[8] = tested on: Aspergillus brasiliensis; conditions: for mean log reduction: 15% [w/w] hydrogen peroxide vapor, mean of batches 1-3
Experimental: as §6, §7, §8, §9, §10

[9] = tested on: Pseudomonas aeruginosa; conditions: 15% [w/w] hydrogen peroxide vapor, mean of batches 1-3
Experimental: as §6, §7, §8, §9, §10

[10] = tested on: Candida albicans; conditions: for mean log reduction: 15% [w/w] hydrogen peroxide vapor, mean of batches 1-3
Experimental: as §6, §7, §8, §9, §10

[11] = tested on: total count; test: Example 2, Table 3: total count after hydrogen peroxide pulses with air or ozone, with or without ozone preheat; type: cell-based; conditions: HPO to 75 mbar + air to 500 mbar 40° C. one pulse, control 130,000
Experimental: as §3

[12] = tested on: yeast and mold; conditions: hydrogen peroxide solution 50% in water, 40° C. 40 ml + 1 m; control 20,800; listed as H2O2
Experimental: (§11) A control sample was used, which was not treated, to show microbial load before treatment.
(§12) In each of the trials above, the H2O2 solution was introduced over a period of 3 minutes until a pressure of 70-100 mbar, by introduction of 4 injections, each injection of 10 ml. […] Some of the batches indicating “vent 700” were slowly vented to 700 mbar with air.

[13] = tested on: total count; conditions: hydrogen peroxide solution 50% in water, control 208,800
Experimental: as §11, §12

[14] = Preheat (40° C. for 5 minutes), one pulse
[15] = Preheat (40° C. for 5 minutes), two pulses

## O=c1nc([O-])n(Cl)c(=O)n1Cl.[Na+] [NaDCC, Sodium dichloroisocyanurate]
[1]; NaDCC 1% [w/w], 1 pulse
  Yeast & Molds Count: 10,857
[1]; NaDCC 1% [w/w], 2 pulses
  Yeast & Molds Count: 5,553
[1]; NaDCC 2% [w/w], 1 pulse
  Yeast & Molds Count: 7,600
[1]; NaDCC 2% [w/w], 2 pulses
  Yeast & Molds Count: 3,436
[1]; NaDCC 5% [w/w], 1pulse
  Yeast & Molds Count: 10,133
[1]; NaDCC 5% [w/w], 2 pulses
  Yeast & Molds Count: 12,667
[2]; NaDCC 1% [w/w], 1 pulse
  Total pathogen Count: 35,100
  Fold-Reduction: 14
[2]; NaDCC 1% [w/w], 2 pulses
  Total pathogen Count: 17,900
  Fold-Reduction: 27
[2]; NaDCC 2% [w/w], 1 pulse
  Total pathogen Count: 24,500
  Fold-Reduction: 20
[2]; NaDCC 2% [w/w], 2 pulses
  Total pathogen Count: 11,075
  Fold-Reduction: 44
[2]; NaDCC 5% [w/w], 1pulse
  Total pathogen Count: 32,667
  Fold-Reduction: 15
[2]; NaDCC 5% [w/w], 2 pulses
  Total pathogen Count: 40,833
  Fold-Reduction: 12

## OO [hydrogen peroxide]
[3]; sample weight 100 gr
  Y&M: 100 cfu/ml
[3]; sample weight 300 gr
  Y&M: 30 cfu/ml
[4]; No preheat, one pulse
  Total Count: 5,556 cfu/ml
  Total Count Fold-Reduction: 243
[4]; No preheat, two pulses
  Total Count: 3,082 cfu/ml
  Total Count Fold-Reduction: 438
[4]; [14]
  Total Count: 2,316 cfu/ml
[4]; [15]
  Total Count: 1,028 cfu/ml
[4]; Preheat, one pulse
  Total Count Fold-Reduction: 583
[4]; Preheat, two pulses
  Total Count Fold-Reduction: 1,313
[4]; pre-heating stage and two sterilant pulses combined
  decontamination, reduction of microbes: over 3 orders of magnitude
[5]; No preheat, one pulse
  Yeast & Mold: 19,828 cfu/ml
  Yeast & Mold Fold-Reduction: 58
[5]; No preheat, two pulses
  Yeast & Mold: 3,249 cfu/ml
  Yeast & Mold Fold-Reduction: 354
[5]; [14]
  Yeast & Mold: 3,433 cfu/ml
[5]; [15]
  Yeast & Mold: 415 cfu/ml
[5]; Preheat, one pulse
  Yeast & Mold Fold-Reduction: 335
[5]; Preheat, two pulses
  Yeast & Mold Fold-Reduction: 2,770
[6]; 2 pulses, Middle tray
  mean log reduction: 2.8
[6]; 2 pulses, Top tray
  mean log reduction: 5.5
[6]; 3 pulses, Middle tray
  mean log reduction: 5.1
[6]; 3 pulses, Top tray
  mean log reduction: 7.0
[7]; 2 pulses, Middle tray
  mean log reduction: 3.5
[7]; 2 pulses, Top tray
  mean log reduction: 3.5
[7]; 3 pulses, Middle tray
  mean log reduction: 4.3
[7]; 3 pulses, Top tray
  mean log reduction: 4.8
[8]; 2 pulses, Middle tray
  mean log reduction: 2.0
[8]; 2 pulses, Top tray
  mean log reduction: 3.3
[8]; 3 pulses, Middle tray
  mean log reduction: 2.2
[8]; 3 pulses, Top tray
  mean log reduction: 3.3
[8]; sterilized at 24 hours post inoculation
  reduction in microbial count after treatment: 5 log
[9]; 2 pulses, Middle tray
  mean log reduction: 3.7
[9]; 2 pulses, Top tray
  mean log reduction: 5.3
[9]; 3 pulses, Middle tray
  mean log reduction: 4.7
[9]; 3 pulses, Top tray
  mean log reduction: 7.2
[10]; 2 pulses, Middle tray
  mean log reduction: 2.8
[10]; 2 pulses, Top tray
  mean log reduction: 6.3
[10]; 3 pulses, Middle tray
  mean log reduction: 6.0
[10]; 3 pulses, Top tray
  mean log reduction: 6.3
[10]; top tray, both 2 and 3 pulses
  reduction in microbial count: ≥ 6 fold
[11]; sample weight 100 gr
  TC: 11,000 cfu/ml
[11]; sample weight 300 gr
  TC: 48,000 cfu/ml
[12]
  Y&M: 2,600 cfu/ml and 2,500 cfu/ml
[13]; 30° C. 40 ml, 200 g inflorescence
  TC: 31,000 cfu/ml
[13]; 40° C. 40 ml + 1 m + Vent700, listed as H2O2
  TC: 12,000 cfu/ml and 19,000 cfu/ml
[13]; 40° C. 40 ml, listed as H2O2
  TC: 15,000 cfu/ml and 10,000 cfu/ml
[1]; 50% H2O2, 2 pulses
  Yeast & Molds Count: 2,492
[2]; 50% H2O2, 2 pulses
  Total pathogen Count: 8,033
  Fold-Reduction: 61
